From US11083709B2, “Compounds, compositions, and methods of increasing CFTR activity” (Proteostasis Therapeutics, Inc., priority 2015, dated 2021)

Target: T1, ΔF508-CFTR (Homo sapiens, UniProt P13569, DEL508-508)
T1 construct: primary lung epithelial cells (hBEs) homozygous for the Cystic Fibrosis-causing ΔF508 mutation; endogenous in cells; host or cells: primary lung epithelial cells (hBEs) homozygous for ΔF508
Assay: Ussing measurements, hBEs homozygous for ΔF508
Format: cell-based
Settings: compound at 10 uM and VX-809 at 3 uM, relative to VX-809 (3 uM); 24 h treatment
Description: As discussed above, Ussing measurements can be used to measure CFTR activity. In this example, primary lung epithelial cells (hBEs) homozygous for the Cystic Fibrosis-causing ΔF508 mutation were differentiated for a minimum of 4 weeks in an air-liquid interface on SnapWell filter plates prior to the Ussing measurements. Cells were apically mucus-washed for 30 minutes prior to treatment with compounds. The basolateral media was removed and replaced with media containing the compound of interest diluted to its final concentration from DMSO stocks. Treated cells were incubated at 37° C. and 5% CO2 for 24 hours. […] The short-circuit current was measured in voltage clamp-mode (Vhold=0 mV), and the entire assay was conducted at a temperature of 36° C.-36.5° C. Once the voltages stabilized, the chambers were clamped, and data was recorded by pulse readings every 5 seconds. Following baseline current stabilization, the following additions were applied and the changes in current and resistance of the cells was monitored: • 1. […]
The inhibitable current (that current that is blocked by CFTRinh-172) is measured as the specific activity of the ΔF508-CFTR channel, and increases in response to compound in this activity over that observed in vehicle-treated samples are identified as the correction of ΔF508-CFTR function imparted by the compound tested. […]

T1 sequence (P13569 with tags, fused parts or gaps DEL508-508): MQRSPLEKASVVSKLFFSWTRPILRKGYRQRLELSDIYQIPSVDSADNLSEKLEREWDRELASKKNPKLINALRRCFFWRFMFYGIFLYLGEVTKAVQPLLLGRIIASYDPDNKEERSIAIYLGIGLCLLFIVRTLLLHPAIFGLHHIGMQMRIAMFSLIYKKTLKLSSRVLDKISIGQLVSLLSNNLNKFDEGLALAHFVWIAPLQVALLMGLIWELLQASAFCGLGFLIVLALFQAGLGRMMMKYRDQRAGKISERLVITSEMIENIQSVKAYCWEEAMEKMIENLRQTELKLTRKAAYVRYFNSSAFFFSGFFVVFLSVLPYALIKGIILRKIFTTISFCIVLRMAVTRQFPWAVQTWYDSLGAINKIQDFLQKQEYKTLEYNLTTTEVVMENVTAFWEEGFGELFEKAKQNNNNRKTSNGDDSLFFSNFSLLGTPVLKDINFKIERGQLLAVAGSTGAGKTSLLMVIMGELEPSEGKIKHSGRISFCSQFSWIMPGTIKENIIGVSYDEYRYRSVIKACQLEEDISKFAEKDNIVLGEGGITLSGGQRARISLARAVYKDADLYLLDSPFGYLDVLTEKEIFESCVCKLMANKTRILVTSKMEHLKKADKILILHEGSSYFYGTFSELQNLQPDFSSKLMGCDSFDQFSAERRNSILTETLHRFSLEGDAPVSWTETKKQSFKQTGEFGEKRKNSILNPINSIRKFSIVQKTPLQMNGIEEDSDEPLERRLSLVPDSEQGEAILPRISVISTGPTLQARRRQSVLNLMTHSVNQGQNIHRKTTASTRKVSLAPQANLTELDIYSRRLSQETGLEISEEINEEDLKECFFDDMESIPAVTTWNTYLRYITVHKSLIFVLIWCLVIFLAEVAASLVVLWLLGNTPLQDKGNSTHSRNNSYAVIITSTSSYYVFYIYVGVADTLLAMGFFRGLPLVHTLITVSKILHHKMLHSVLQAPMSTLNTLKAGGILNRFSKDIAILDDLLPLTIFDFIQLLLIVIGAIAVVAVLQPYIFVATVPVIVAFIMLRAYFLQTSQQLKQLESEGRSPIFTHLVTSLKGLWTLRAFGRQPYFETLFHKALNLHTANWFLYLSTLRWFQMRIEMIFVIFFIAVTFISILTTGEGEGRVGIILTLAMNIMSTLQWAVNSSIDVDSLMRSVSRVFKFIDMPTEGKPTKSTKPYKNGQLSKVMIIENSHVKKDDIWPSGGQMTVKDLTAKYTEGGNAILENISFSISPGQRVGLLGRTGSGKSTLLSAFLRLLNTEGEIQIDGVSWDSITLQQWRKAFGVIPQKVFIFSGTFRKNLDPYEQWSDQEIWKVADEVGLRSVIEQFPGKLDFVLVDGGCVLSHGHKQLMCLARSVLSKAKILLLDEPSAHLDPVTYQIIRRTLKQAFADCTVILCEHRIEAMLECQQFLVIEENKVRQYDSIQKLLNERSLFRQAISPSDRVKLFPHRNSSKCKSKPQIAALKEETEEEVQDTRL

O=C(N[C@H]1C[C@H](n2nncc2CO)C1)c1cc(-c2ccccc2)no1 [Example 5, N-(trans-3-(5-(hydroxymethyl)-1H-1,2,3-triazol-1-yl)cyclobutyl)-3-phenylisoxazole-5-carboxamide]
Ussing: activity of compound with VX-809, % of VX-809: ## (## indicates activity ≥200% of VX-809 (3 uM) with compound at 10 uM and VX-809 at 3 uM)
